Legend:
[1] = biological target: T1, Cholecystokinin receptor type A (Homo sapiens, UniProt P32238)
T1 sequence (P32238 whole entry): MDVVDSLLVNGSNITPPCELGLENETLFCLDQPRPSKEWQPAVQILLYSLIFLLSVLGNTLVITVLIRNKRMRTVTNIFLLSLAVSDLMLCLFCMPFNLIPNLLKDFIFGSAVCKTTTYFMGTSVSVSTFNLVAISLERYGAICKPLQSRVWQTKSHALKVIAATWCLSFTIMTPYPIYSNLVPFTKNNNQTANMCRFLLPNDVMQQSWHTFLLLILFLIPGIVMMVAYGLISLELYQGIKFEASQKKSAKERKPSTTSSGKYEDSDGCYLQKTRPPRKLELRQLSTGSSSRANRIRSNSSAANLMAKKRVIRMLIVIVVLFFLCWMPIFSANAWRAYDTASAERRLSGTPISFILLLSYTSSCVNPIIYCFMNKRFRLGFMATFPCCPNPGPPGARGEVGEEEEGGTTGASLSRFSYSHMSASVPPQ

[2] = biological target: Neuronal acetylcholine receptor subunit alpha-4 (Homo sapiens, UniProt P43681)
[3] = biological target: Gamma-aminobutyric acid receptor subunit alpha-1 (Rattus norvegicus, UniProt P62813); format: functional
[4] = biological target: T2, Alpha-1A adrenergic receptor (Homo sapiens, UniProt P35348)
T2 sequence (P35348 whole entry): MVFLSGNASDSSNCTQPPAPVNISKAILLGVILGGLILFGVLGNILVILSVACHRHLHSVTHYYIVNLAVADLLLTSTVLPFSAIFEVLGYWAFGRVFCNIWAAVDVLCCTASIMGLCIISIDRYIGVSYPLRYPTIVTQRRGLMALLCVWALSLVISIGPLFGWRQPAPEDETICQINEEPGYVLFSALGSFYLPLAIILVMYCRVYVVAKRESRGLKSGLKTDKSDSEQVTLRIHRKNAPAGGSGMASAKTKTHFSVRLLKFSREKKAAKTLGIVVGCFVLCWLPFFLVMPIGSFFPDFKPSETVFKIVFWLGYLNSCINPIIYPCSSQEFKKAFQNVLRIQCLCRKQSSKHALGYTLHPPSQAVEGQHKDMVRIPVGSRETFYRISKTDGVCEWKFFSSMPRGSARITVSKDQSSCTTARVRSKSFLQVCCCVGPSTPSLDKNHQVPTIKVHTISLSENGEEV

[5] = biological target: Glutamate receptor ionotropic, NMDA 1 (Rattus norvegicus, UniProt P35439)
[6] = biological target: T3, Muscarinic acetylcholine receptor M2 (Homo sapiens, UniProt P08172); format: functional, cell-based
T3 sequence (P08172 whole entry): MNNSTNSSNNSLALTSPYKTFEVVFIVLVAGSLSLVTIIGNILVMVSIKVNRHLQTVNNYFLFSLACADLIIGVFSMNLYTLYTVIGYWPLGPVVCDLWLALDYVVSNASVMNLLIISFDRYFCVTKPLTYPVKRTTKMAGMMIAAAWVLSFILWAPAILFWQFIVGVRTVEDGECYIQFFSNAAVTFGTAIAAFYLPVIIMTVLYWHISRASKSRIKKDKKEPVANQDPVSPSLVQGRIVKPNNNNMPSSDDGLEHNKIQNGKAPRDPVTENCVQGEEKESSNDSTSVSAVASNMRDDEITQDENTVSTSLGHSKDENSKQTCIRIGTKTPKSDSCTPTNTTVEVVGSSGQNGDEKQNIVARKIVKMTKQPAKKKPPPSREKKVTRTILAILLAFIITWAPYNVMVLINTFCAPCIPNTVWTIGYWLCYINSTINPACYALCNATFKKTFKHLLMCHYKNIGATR

[7] = biological target: Sodium-dependent serotonin transporter (Homo sapiens, UniProt P31645)
[8] = biological target: T4, Alpha-2B adrenergic receptor (Homo sapiens, UniProt P18089)
T4 sequence (P18089 whole entry): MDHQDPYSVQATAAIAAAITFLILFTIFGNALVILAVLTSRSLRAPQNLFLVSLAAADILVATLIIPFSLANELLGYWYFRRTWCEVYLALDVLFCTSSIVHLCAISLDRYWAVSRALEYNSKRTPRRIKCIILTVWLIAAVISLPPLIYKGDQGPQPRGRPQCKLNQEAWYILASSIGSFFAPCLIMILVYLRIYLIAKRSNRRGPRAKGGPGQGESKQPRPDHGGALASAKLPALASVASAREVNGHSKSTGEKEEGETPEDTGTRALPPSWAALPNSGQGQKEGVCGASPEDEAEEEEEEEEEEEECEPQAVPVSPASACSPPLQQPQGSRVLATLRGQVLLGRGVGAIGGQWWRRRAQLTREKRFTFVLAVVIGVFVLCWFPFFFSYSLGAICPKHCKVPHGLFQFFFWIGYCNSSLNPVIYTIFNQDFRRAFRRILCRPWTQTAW

[9] = biological target: T5, Alpha-2A adrenergic receptor (Homo sapiens, UniProt P08913); format: functional, cell-based
T5 sequence (P08913 whole entry): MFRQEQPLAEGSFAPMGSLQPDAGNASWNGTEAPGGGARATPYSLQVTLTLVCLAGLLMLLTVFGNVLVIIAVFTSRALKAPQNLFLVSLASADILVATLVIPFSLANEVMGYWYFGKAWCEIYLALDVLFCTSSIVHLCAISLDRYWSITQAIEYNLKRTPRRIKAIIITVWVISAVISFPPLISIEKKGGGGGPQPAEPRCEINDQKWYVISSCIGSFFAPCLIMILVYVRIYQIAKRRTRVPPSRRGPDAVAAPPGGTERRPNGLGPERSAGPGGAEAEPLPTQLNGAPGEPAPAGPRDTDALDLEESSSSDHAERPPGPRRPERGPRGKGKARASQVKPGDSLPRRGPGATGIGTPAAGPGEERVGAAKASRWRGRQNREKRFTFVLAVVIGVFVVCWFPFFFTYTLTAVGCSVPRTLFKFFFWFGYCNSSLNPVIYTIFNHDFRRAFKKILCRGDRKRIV
Note: assay procedure not described here.

Sodium-dependent serotonin transporter, sequence (P31645 whole entry): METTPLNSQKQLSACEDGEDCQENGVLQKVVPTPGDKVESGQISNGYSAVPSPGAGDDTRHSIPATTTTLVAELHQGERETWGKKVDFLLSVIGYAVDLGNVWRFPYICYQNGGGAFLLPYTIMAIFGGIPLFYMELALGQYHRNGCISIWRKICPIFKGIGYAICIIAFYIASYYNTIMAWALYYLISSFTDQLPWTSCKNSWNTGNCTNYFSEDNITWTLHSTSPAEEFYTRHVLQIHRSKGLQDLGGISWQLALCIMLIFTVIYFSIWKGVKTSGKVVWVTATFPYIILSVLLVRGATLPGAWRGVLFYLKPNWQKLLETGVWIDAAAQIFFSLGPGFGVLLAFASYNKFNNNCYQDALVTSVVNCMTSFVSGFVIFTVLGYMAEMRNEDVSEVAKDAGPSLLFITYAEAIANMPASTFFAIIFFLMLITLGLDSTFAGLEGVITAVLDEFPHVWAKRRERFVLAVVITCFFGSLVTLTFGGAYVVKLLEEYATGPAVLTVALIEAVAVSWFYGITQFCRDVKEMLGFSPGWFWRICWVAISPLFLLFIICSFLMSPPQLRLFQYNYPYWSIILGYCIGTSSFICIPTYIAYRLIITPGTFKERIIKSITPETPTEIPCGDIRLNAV
Neuronal acetylcholine receptor subunit alpha-4, sequence (P43681 whole entry): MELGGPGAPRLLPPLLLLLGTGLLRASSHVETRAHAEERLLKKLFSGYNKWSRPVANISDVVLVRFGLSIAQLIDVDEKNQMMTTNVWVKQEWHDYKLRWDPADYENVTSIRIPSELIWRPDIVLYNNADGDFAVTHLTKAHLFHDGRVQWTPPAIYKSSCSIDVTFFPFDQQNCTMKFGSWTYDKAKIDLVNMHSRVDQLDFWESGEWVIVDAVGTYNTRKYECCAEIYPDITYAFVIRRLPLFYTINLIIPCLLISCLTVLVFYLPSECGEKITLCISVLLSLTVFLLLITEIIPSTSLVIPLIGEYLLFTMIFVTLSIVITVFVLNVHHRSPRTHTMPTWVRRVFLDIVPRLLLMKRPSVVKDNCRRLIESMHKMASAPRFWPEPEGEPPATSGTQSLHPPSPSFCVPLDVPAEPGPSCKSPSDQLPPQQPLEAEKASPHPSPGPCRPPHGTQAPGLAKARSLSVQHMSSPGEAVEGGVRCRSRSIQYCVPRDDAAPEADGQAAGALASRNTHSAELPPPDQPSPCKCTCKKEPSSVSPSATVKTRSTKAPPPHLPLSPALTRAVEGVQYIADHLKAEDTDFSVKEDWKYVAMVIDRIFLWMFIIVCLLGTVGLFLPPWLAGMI
Gamma-aminobutyric acid receptor subunit alpha-1, sequence (P62813 whole entry): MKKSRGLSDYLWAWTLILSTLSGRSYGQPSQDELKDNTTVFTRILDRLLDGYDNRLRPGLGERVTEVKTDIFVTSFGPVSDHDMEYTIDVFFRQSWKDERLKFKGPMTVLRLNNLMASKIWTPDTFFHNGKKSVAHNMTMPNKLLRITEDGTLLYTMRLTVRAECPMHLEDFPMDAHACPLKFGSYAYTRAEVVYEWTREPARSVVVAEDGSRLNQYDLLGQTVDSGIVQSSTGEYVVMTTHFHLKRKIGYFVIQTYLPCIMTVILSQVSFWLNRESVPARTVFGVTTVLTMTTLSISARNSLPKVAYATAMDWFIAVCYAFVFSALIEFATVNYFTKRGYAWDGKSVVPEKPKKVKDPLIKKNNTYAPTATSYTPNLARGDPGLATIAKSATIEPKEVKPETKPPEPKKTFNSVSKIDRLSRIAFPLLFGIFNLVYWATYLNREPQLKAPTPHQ

| SMILES | AC50 [1] [µM] | AC50 [2] [µM] | AC50 [3] [µM] | AC50 [4] [µM] | AC50 [5] [µM] | AC50 [6] [µM] | AC50 [7] [µM] | AC50 [8] [µM] | AC50 [9] [µM] |
| --- | --- | --- | --- | --- | --- | --- | --- | --- | --- |
| N=C(N)NC(=O)Cc1c(Cl)cccc1Cl [GUANFACINE] | > 30 | > 10 | > 30 | 7.64 | > 30 | > 30 | – | – | – |
| O=C(O)c1ccc2nc(-c3cc(Cl)cc(Cl)c3)oc2c1 | > 30 | > 30 | > 30 | – | > 30 | > 30 | > 30 | > 30 | > 30 |
| CC(=O)N1CCN(c2ccc(OCC3COC(Cn4ccnc4)(c4ccc(Cl)cc4Cl)O3)cc2)CC1 (stereo not given) [KETOCONAZOLE] | > 10 | > 10 | > 10 | > 10 | > 10 | – | – | – | > 10 |
| CN1C2CCCC1CC(NC(=O)c1nn(C)c3ccccc13)C2 (stereo not given) [GRANISETRON] | > 30 | – | > 10 | > 10 | > 10 | > 10 | – | – | > 10 |
| OCCN(CCO)c1nc(N2CCCCC2)c2nc(N(CCO)CCO)nc(N3CCCCC3)c2n1 [DIPYRIDAMOLE] | > 30 | – | 1.4 | > 30 | > 30 | 2 | – | – | > 10 |
| COc1cc(N)cn[n+]1-c1ccccc1 [AMEZINIUM METILSULFATE] | > 30 | > 10 | > 30 | – | > 30 | > 30 | 17 | > 30 | > 30 |
| CN(C)CCOCC(=O)NC12CC3CC(CC(C3)C1)C2 [TROMANTADINE] | > 30 | > 30 | > 30 | – | > 30 | > 30 | > 30 | > 30 | > 30 |
| CCCO[C@H]1[C@@H]([C@@H](COCc2ccc(Cl)cc2)OCc2ccc(Cl)cc2)OC(OCC)[C@@H]1O (stereo not given in full) [CLOBENOSIDE] | > 30 | > 30 | > 30 | – | > 30 | > 30 | > 30 | > 30 | > 30 |
| CC1=C(/C=C/C(C)=C/C=C/C(C)=C/C(=O)Oc2c(C)c(C)c3c(c2C)CCC(C)(CCCC(C)CCCC(C)CCCC(C)C)O3)C(C)(C)CCC1 (stereo not given) [TRETINOIN TOCOFERIL] | > 30 | > 30 | > 30 | – | > 30 | > 30 | > 30 | > 30 | > 30 |
| CCC(=O)O[C@H](CC(=O)O)C[N+](C)(C)C [LEVOCARNITINE PROPIONATE] | > 30 | > 30 | > 30 | – | > 30 | > 30 | > 30 | > 30 | > 30 |
| CCN(CC)Cc1nccn1-c1ccc([N+](=O)[O-])cc1C(=O)c1ccccc1Cl [NIZOFENONE] | > 30 | 8.3 | > 30 | – | > 30 | > 30 | > 30 | > 10 | > 30 |
| CC(=O)Oc1cccc2c1C(=O)c1c(OC(C)=O)cc(C(=O)O)cc1C2=O [DIACEREIN] | > 30 | 27 | > 30 | – | > 30 | 12 | 23 | > 30 | 12 |

Other lines, results leading:

| AC50 [1] [µM] | AC50 [2] [µM] | AC50 [3] [µM] | AC50 [4] [µM] | AC50 [5] [µM] | AC50 [6] [µM] | AC50 [7] [µM] | AC50 [8] [µM] | AC50 [9] [µM] | SMILES |
| --- | --- | --- | --- | --- | --- | --- | --- | --- | --- |
| > 30 | > 30 | > 30 | – | > 30 | > 30 | > 30 | > 30 | > 30 | CC1=C(C(=O)O)N2C(=O)[C@@H](NC(=O)[C@H](N)C3=CCC=CC3)[C@H]2SC1 [CEPHRADINE] |
| > 30 | > 30 | > 30 | – | > 30 | > 30 | > 30 | > 30 | > 30 | CO/N=C(\C(=O)N[C@@H]1C(=O)N2C(C(=O)O)=C(CSc3nc(C)c(CC(=O)O)s3)CS[C@H]12)c1csc(N)n1 [CEFODIZIME] |
| > 30 | > 30 | > 30 | – | > 30 | > 30 | > 30 | > 30 | > 30 | CCCCCCOC(=O)NC(=N)c1ccc(NCc2nc3cc(C(=O)N(CCC(=O)OCC)c4ccccn4)ccc3n2C)cc1 [DABIGATRAN ETEXILATE] |
| > 30 | > 30 | > 30 | – | > 30 | > 30 | > 30 | > 30 | > 30 | CO/N=C(\C(=O)N[C@@H]1C(=O)N2C(C(=O)[O-])=C(C[n+]3ccc(N)n3CCO)CS[C@H]12)c1csc(N)n1 [CEFOSELIS] |
| > 30 | > 30 | > 30 | – | > 30 | > 30 | > 30 | > 30 | > 30 | CC(=O)OCC1=C(C(=O)O)N2C(=O)[C@@H](NC(=O)Cc3cccs3)[C@H]2SC1 [CEPHALOTHIN] |
| > 30 | > 30 | > 30 | – | > 30 | > 30 | > 30 | > 30 | > 30 | CS(=O)(=O)NC(=O)CCC/C=C\C[C@H]1C(=O)C[C@@H](O)[C@@H]1/C=C/[C@@H](O)COc1ccccc1 [SULPROSTONE] |
| > 30 | > 30 | > 30 | – | > 30 | > 30 | > 30 | > 30 | > 30 | CCCCOC(=O)C(=O)Nc1cccc(-c2nnn[nH]2)c1 [TAZANOLAST] |
| > 30 | > 30 | > 30 | – | > 30 | > 30 | > 30 | > 30 | > 30 | CCCCC[C@H](O)CC[C@@H]1[C@H]2Cc3cccc(OCC(=O)O)c3C[C@H]2C[C@H]1O [TREPROSTINIL] |
| > 30 | > 30 | > 30 | – | > 30 | > 30 | > 30 | > 30 | > 30 | COc1ccc(-n2nc(C(N)=O)c3c2C(=O)N(c2ccc(N4CCCCC4=O)cc2)CC3)cc1 [APIXABAN] |

— ChEMBL document CHEMBL5291721, “A preclinical secondary pharmacology resource illuminates target-adverse drug reaction associations of marketed drugs” (Nat Commun, 2023)
